Laboratory results from patent US20200246308A1, “SYNERGISTIC COMBINATIONS OF UROLITHINS A AND B FOR IMPROVING COGNITIVE CAPACITY OR COGNITIVE FUNCTION” (Natreon, Inc., priority 2018, published 2020).

Tested on: scopolamine induced amnesic rat model
Assay: Passive avoidance test, scopolamine induced amnesic rat model (Example 9B)
Type: in vivo, Male Wistar rats
Conditions: p.o. 7 days: B 50, A 50, B:A 10:50 and 50:50 mg/kg, Shilajit 25 mg/kg b.i.d; scopolamine 1 mg/kg i.p.
Description: The experiment was conducted in accordance with the Principles of laboratory animal care. Male Wistar rats (200-250 g) were purchased from the Central Animal House, Institute of Medical Sciences, Banaras Hindu University (BHU), Varanasi, India. Experiments on animals were approved by the Institutional Animal Ethics Committee of BHU, Varanasi, India. The animals were housed in polypropylene cages under controlled environmental conditions of temperature of 25±1° C. and 45-55% relative humidity and a 12:12 h light/dark cycle. The experimental animals had free access to commercial rat feed and water ad libitum during the experiment. Animals were acclimatized for at least one week before using them for experiments and exposed only once to the experiment.
Rats were randomly allocated into eight study groups containing six in each group (n=6), as follows:
Drug solution was freshly prepared in 0.3% CMC and administered by oral gavage once a day, for a period of 7 days. Briefly, the whole experiment was conducted for 8 days. […]
Passive avoidance (PA) test: The PA task is a fear-aggravated test used to evaluate learning and memory in rodent models of CNS disorders. […] The transfer of the animal from one compartment to another was recorded and transfer latency time (TLT) was calculated in seconds. […]

Row | SMILES | Transfer latency time (TLT), retention trial vs acquisition trial
1 | O=c1oc2cc(O)ccc2c2ccc(O)cc12 [Urolithin A, 3,8-dihydroxy-dibenzo-alpha-pyrone] | significant increase in TLT of retention trial in comparison to acquisition trial but less effective as compared to the vehicle treated group
2 | O=c1oc2cc(O)ccc2c2ccccc12 [Urolithin B, 3-hydroxy-dibenzo-alpha-pyrone] | significant increase in TLT of retention trial in comparison to acquisition trial but less effective as compared to the vehicle treated group
